From US10098924B1, “Anticancer extracts of Alpinia officinarum hance” (KING SAUD UNIVERSITY, priority 2018, dated 2018)
Counter-ions that a name gives are not always drawn.

Experiments:
Assay type in all cases: cell-based
[1] = system: A-549 (Lung carcinoma) cells; assay: MTT cell viability assay, A-549 cells; settings: Homo sapiens, A549, about 24 hours incubation
Description: (§1) Briefly, the cell lines were suspended in medium at concentration of about 5×10^4 cells per well in Corning® 96-well tissue culture plates and incubated for about 24 hours. Extracts prepared according to Example 1 were rehydrated, diluted ten times, and each dilution was added to a well of a 96-well plate (using six replicates). Six vehicle controls with media or 0.5% DMSO were run for each 96 well plate as a control. After incubation for about 24 hours, the number of viable cells was determined by the MTT assay method. Briefly, the media was removed from the 96-well plates and replaced with about 100 μl of fresh culture RPMI 1640 medium without phenol red, then about 10 μl of about 12 mM MTT (Sigma) stock solution (5 mg of MTT in about 1 mL of PBS) was added to each well, including the untreated controls. The 96-well plates were then incubated at about 37° C. and at about 5% CO2 for about 4 hours. An 85 μl aliquot of the media was removed from the wells, and 50 μl of DMSO was added to each well and mixed thoroughly with the pipette and incubated at about 37° C. for about 10 minutes. The optical density was measured at 590 nm with a microplate reader to determine the number of viable cells. The percentage of viability was calculated as: (ODt/ODc)×100%, where ODt is the mean optical density of wells treated with the tested sample and ODe is the mean optical density of untreated cells. […]

[2] = system: CACO (colorectal carcinoma) cells; assay: MTT cell viability assay, CACO cells; settings: Homo sapiens, about 24 hours incubation
Description: as §1

[3] = system: HCT-116 (Colon carcinoma) cells; assay: MTT cell viability assay, HCT-116 cells; settings: Homo sapiens, about 24 hours incubation
Description: as §1

[4] = system: HeLa (Cervical carcinoma) cells; assay: MTT cell viability assay, HeLa cells; settings: Homo sapiens, about 24 hours incubation
Description: as §1

[5] = system: PC3 (prostate cancer) cells; assay: MTT cell viability assay, PC3 cells; settings: Homo sapiens, PC-3, about 24 hours incubation
Description: as §1

Compound: CC[C@]1(O)C[C@@H]2CN(CCc3c([nH]c4ccccc34)[C@@](C(=O)OC)(c3cc4c(cc3OC)N(C)[C@H]3[C@@](O)(C(=O)OC)[C@H](OC(C)=O)[C@]5(CC)C=CCN6CC[C@]43[C@@H]65)C2)C1 [Vinblastine Sulfate, vinblastine sulfate]
- IC50 [1]: 24.6 ± 0.7 µg/mL
- IC50 [2]: 30.3 ± 1.4 µg/mL
- IC50 [3]: 3.5 ± 0.2 µg/mL
- IC50 [4]: 59.7 ± 2.1 µg/mL
- IC50 [5]: 21.2 ± 0.9 µg/mL
